Here are results for 2 compounds from paper PMC9610943, “Truncated Pleurocidin Derivative with High Pepsin Hydrolysis Resistance to Combat Multidrug-Resistant Pathogens” (Pharmaceutics, 2022).

Converted amounts (≈) assume the structure as drawn. Where two headings read alike, the source gives them in different places. Where no end group is shown, it is not given here.

In one test the test system is E. coli 1F28 (tet(X4)). In words: microbe, parasite or virus in culture. The test is classed as cell-based. Conditions: E. coli 1F28 (tet(X4)), micro-broth dilution CLSI 2018, MHB, 37 °C, 16 to 18 h. Here is the method: (§1) S. aureus ATCC 29213, E. coli ATCC 25922, S. enteritidis ATCC 13076 and A. baumannii ATCC 19609 were obtained from the American Type Culture Collection (ATCC). The remaining strains used in the experiment were all preserved strains in our laboratory. All strains were cultured in nutrient broth overnight to the logarithmic phase at 37 °C prior to each experiment.
(§2) The MICs of all drugs were determined by micro-broth dilution method according to CLSI 2018 guidelines. Briefly, a single colony of the bacterial strain was transferred to 1 mL of Mueller Hilton broth (MHB) and overnight at 37 °C and then 10 μL were cultured in a new 1 mL medium for 4 to 6 h, and then the bacterial culture at the logarithmic phase was diluted to 1 × 10^6 CFUs/mL. The assay was performed by adding 100 μL of each peptide solution at various concentrations (0.25 to 128 μg/mL) and 100 μL of diluted bacterial culture to different wells of a 96-well microtiter plate (Corning, NY, USA). After incubation at 37 °C for 16 to 18 h and then read its MIC value. MIC value is defined as the lowest drug concentration without visible bacteria.

For test [1], the system named is S. enteritidis ATCC 13076. Kind of test: microbe, parasite or virus in culture. It counts as cell-based. The method, then:
as §1, §2

The next test concerns E. coli CP131 (mcr-3). Kind of test: microbe, parasite or virus in culture. The test is classed as cell-based. Conditions: E. coli CP131 (mcr-3), micro-broth dilution CLSI 2018, MHB, 37 °C, 16 to 18 h. The method, then:
as §1, §2

Another test relates to P. aeruginosa PA14. In words: microbe, parasite or virus in culture. The test is classed as cell-based. The method, then:
as §1, §2

The test system of another test is E. coli B3-1 (tet(X4)). In words: microbe, parasite or virus in culture. The test is classed as cell-based. The following applies: E. coli B3-1 (tet(X4)), micro-broth dilution CLSI 2018, MHB, 37 °C, 16 to 18 h. Here is the method:
as §1, §2

In a further test the test system is E. coli ATCC 25922. Kind of test: microbe, parasite or virus in culture. The test is classed as cell-based. Here is the method:
as §1, §2

The next test relates to S. aureus ATCC 29213. Kind of test: microbe, parasite or virus in culture. It counts as cell-based. Here is the method:
as §1, §2

In a further test the test system is E. coli G92 (mcr-1). Kind of test: microbe, parasite or virus in culture. It counts as cell-based. The following applies: E. coli G92 (mcr-1), micro-broth dilution CLSI 2018, MHB, 37 °C, 16 to 18 h. Here is the method: as §1, §2
For a further test, the system named is A. baumannii ATCC 19609. In words: microbe, parasite or virus in culture. The test is classed as cell-based. Conditions: A. baumannii ATCC 19609, micro-broth dilution CLSI 2018, MHB, 37 °C, 16 to 18 h. The method, then: as §1, §2
The next test has as its system E. coli G6 (blaNDM-5). In words: microbe, parasite or virus in culture. The test is classed as cell-based. The following applies: E. coli G6 (blaNDM-5), micro-broth dilution CLSI 2018, MHB, 37 °C, 16 to 18 h. The method, then: as §1, §2
Another test concerns E. coli C3 (blaNDM-1). In words: microbe, parasite or virus in culture. It counts as cell-based. Conditions: E. coli C3 (blaNDM-1), micro-broth dilution CLSI 2018, MHB, 37 °C, 16 to 18 h. Here is the method: as §1, §2
Test [2] relates to E. coli B2 (blaNDM-5 + mcr-1). In words: microbe, parasite or virus in culture. It counts as cell-based. The following applies: E. coli B2 (blaNDM-5 + mcr-1), micro-broth dilution CLSI 2018, MHB, 37 °C, 16 to 18 h. The method, then:
as §1, §2

Test [3] relates to S. aureus 215 (cfr + LZD^R). In words: microbe, parasite or virus in culture. The test is classed as cell-based. Here is the method:
as §1, §2

The test system of the next test is S. aureus G16 (RIF^R). In words: microbe, parasite or virus in culture. The test is classed as cell-based. Here is the method:
as §1, §2

Test [4] relates to E. faecalis A4 (VRE, VanA). Kind of test: microbe, parasite or virus in culture. It counts as cell-based. Here is the method: as §1, §2
Test [5] has as its system P. aeruginosa (VIM + tmexCD1-torJ1). In words: microbe, parasite or virus in culture. The test is classed as cell-based. Here is the method: as §1, §2
In the next test the test system is MRSA 1530. Kind of test: microbe, parasite or virus in culture. It counts as cell-based, Staphylococcus aureus. The following applies: MRSA 1530, micro-broth dilution CLSI 2018, MHB, 37 °C, 16 to 18 h. Here is the method:
as §1, §2

The test system of a further test is MRSA T144. In words: microbe, parasite or virus in culture. The test is classed as cell-based, Staphylococcus aureus. Conditions: MRSA T144, micro-broth dilution CLSI 2018, MHB, 37 °C, 16 to 18 h. Here is the method:
as §1, §2

In test [6] the test system is P. cibarius HNCF44W (blaNDM-1+ tet(X6)). In words: organism not typed. Conditions: P. cibarius HNCF44W (blaNDM-1+ tet(X6)), micro-broth dilution CLSI 2018, MHB, 37 °C, 16 to 18 h. It counts as cell-based. Here is the method:
as §1, §2

Where [7] appears, read: Escherichia coli, read-out: MIC.
Where [8] appears, read: Staphylococcus aureus, read-out: MIC.

In the case of `CN(C)c1cc(NC(=O)CNC(C)(C)C)c(O)c2c1C[C@H]1C[C@H]3[C@H](N(C)C)C(O)=C(C(N)=O)C(=O)[C@@]3(O)C(O)=C1C2=O` [Tig, tigecycline, reference compound], the MIC in the test with E. coli 1F28 (tet(X4)) (setting [7]) is 16 µg/mL (≈ 27.3 µM); in test [1] (Salmonella enterica), 0.125 µg/mL (≈ 0.213 µM); with E. coli CP131 (mcr-3) (setting [7]) it was 2 µg/mL (≈ 3.41 µM); in the test on P. aeruginosa PA14 (Pseudomonas aeruginosa, PA14), < 0.0625 µg/mL; in the test on E. coli B3-1 (tet(X4)) (setting [7]), 32 µg/mL (≈ 54.6 µM); against E. coli ATCC 25922 (Escherichia coli, ATCC25922), 0.125 µg/mL (≈ 0.213 µM). Also, the MIC stood at 0.125 µg/mL (≈ 0.213 µM) in the test on S. aureus ATCC 29213 (Staphylococcus aureus, ATCC29213); 4 µg/mL (≈ 6.83 µM) in the test with E. coli G92 (mcr-1) (setting [7]); 0.25 µg/mL (≈ 0.427 µM) in the test with A. baumannii ATCC 19609 (Acinetobacter baumannii, ATCC19609, read-out: MIC); 2 µg/mL (≈ 3.41 µM) in the test with E. coli G6 (blaNDM-5) (setting [7]); 2 µg/mL (≈ 3.41 µM) in the test on E. coli C3 (blaNDM-1) (setting [7]); 2 µg/mL in [2] (setting [7]). For the same compound, the MIC in test [3] (Staphylococcus aureus) was 0.25 µg/mL (≈ 0.427 µM); with S. aureus G16 (RIF^R) (Staphylococcus aureus), < 0.0625 µg/mL; in test [4] (Enterococcus faecalis, VRE) it was < 0.0625 µg/mL; in test [5] (Pseudomonas aeruginosa), < 0.0625 µg/mL; with MRSA 1530 (setting [8]), 1 µg/mL (≈ 1.71 µM); in the test on MRSA T144 (setting [8]) it was 0.25 µg/mL (≈ 0.427 µM). The MIC in test [6] (read-out: MIC) amounted to 64 µg/mL (≈ 109 µM).
Take GWGSFFKKAAHVGK [GK-1]: the MIC in the test with E. coli 1F28 (tet(X4)) is >128 µg/mL; in [1] (S. enteritidis ATCC 13076, micro-broth dilution CLSI 2018, MHB, 37 °C, 16 to 18 h), >128 µg/mL; against E. coli CP131 (mcr-3), >128 µg/mL; with P. aeruginosa PA14 (P. aeruginosa PA14, micro-broth dilution CLSI 2018, MHB, 37 °C, 16 to 18 h), >128 µg/mL; with E. coli B3-1 (tet(X4)) it was >128 µg/mL; in the test on E. coli ATCC 25922 (E. coli ATCC 25922, micro-broth dilution CLSI 2018, MHB, 37 °C, 16 to 18 h), >128 µg/mL. In addition, the MIC in the test on S. aureus ATCC 29213 (S. aureus ATCC 29213, micro-broth dilution CLSI 2018, MHB, 37 °C, 16 to 18 h) is on record as >128 µg/mL; in the test on E. coli G92 (mcr-1), >128 µg/mL; in the test with A. baumannii ATCC 19609, >128 µg/mL; against E. coli G6 (blaNDM-5), >128 µg/mL; with E. coli C3 (blaNDM-1) it was >128 µg/mL; in test [2] it was >128 µg/mL. The MIC in test [3] (S. aureus 215 (cfr + LZD^R), micro-broth dilution CLSI 2018, MHB, 37 °C, 16 to 18 h) is >128 µg/mL; with S. aureus G16 (RIF^R) (S. aureus G16 (RIF^R), micro-broth dilution CLSI 2018, MHB, 37 °C, 16 to 18 h) it was >128 µg/mL; in test [4] (E. faecalis A4 (VRE, VanA), micro-broth dilution CLSI 2018, MHB, 37 °C, 16 to 18 h), >128 µg/mL; in test [5] (P. aeruginosa (VIM + tmexCD1-torJ1), micro-broth dilution CLSI 2018, MHB, 37 °C, 16 to 18 h), >128 µg/mL; against MRSA 1530 it was >128 µg/mL; against MRSA T144, >128 µg/mL. For the same compound, the MIC in [6] is listed as >128 µg/mL.
